“And” between values parts separate entries of the source, which are not always exact repeats. Identical values can stand only once.

The target in the assay is 15-PGDH/HPGD (Homo sapiens (Human), UniProt P15428). Description: hPGDH inhibitor screening biochemical assay. The conditions noted are these: read-out: hPGDH: Average IC50. On the procedure: A hydroxyprostaglandin dehydrogenase inhibition screening biochemical assay can be performed to assess the synthesized inhibitors provided herein. Provided herein is an exemplary biochemical assay for hPGDH inhibitor screening.
15-PGDH/HPGD, sequence (P15428 whole entry): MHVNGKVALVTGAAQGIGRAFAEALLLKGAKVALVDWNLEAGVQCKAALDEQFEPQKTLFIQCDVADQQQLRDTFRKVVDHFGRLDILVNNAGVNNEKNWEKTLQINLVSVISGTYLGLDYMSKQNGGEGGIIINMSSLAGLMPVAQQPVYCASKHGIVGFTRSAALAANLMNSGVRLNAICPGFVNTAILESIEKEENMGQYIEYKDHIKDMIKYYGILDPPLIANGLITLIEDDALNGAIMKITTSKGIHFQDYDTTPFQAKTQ
The in vitro biochemical assay can be performed in white, 384 plates in total 20 μl reaction volume consisting of 10 nM of 15-PGDH/HPGD (R&D System #5660-DH), 15 μM Prostaglandin E2 (Sigma, Cat #P5640-10MG) and 0.25 mM (3-Nicotinamide adenine dinucleotide sodium salt (Sigma, Cat #N0632-5G) made in reaction buffer (50 mM Tris-HCl, pH 7.5, 0.01% Tween 20) at 10-point dose response curve for test/tool compounds. Briefly, 5 μl (4×) of compounds solution and 5 μl (final concentration, 10 nM) of enzyme solution is added to white 384 well plates and incubated for 10 mins at 37° C. 5 μl (4×) of Prostaglandin E2 and 5 μl (4×) of β-Nicotinamide adenine dinucleotide sodium salt is added to the wells and incubated for 10 mins at room temperature. Fluorescence is recorded at ex/em=340 nm/485 nm. The percentage (%) inhibition of enzyme activity was determined relative to positive control (1% DMSO) and IC50 was calculated using GraphPad prism software (four parameter-variable slope equation).
The IC50 is the concentration that inhibits the measured activity by half. As for `CCn1cnc(-n2ccc3cc(C(=O)N4CCCCC4)cnc32)c1` [MF-PGDH-073], the IC50 lay in the range of 100 to 1000 nM.
As for `O=C(c1ccc2c(c1)ncn2-c1cccc(Cl)c1)N1CCC(O)CC1` [MF-PGDH-052], the IC50 was 100 to 1000 nM.
For `O=C(c1ccc2c(c1)ncn2-c1cccc(Cl)c1)N1CCCCC1` [MF-PGDH-023], the IC50 was below 100 nM.
Next, `COc1ccc(-n2ccc3cc(C(=O)N4CC(c5ccccc5)C4)cnc32)cc1` [MF-DH-326]: at least 1000 nM; `NC(=O)c1cncc(-n2ccc3cc(C(=O)N4CCCCC4)cnc32)c1` [MF-DH-361]: below 100 nM; `COc1ccccc1C(=O)Nc1ccc(C(=O)N2CCC(F)(F)CC2)cc1` [MF-PGDH-087]: 100 to 1000 nM.
Consider `COCCc1nc2cc(C(=O)N3CCC(F)CC3)ccc2n1-c1ccc(OC)cc1` [MF-DH-186], for which the IC50 was 100 to 1000 nM.
Next, `Nc1cncc(-n2ccc3cc(C(=O)N4CCCCC4)cnc32)c1` [MF-DH-322]: below 100 nM.
For `O=C(c1ccc2c(-c3cccc(Cl)c3)c[nH]c2c1)N1CCCCC1` [MF-PGDH-053, (3-(3-chlorophenyl)-1H-indol-6-yl)(piperidin-1-yl)methanone], the IC50 was below 100 nM.
For the compound `CN(C(=O)c1ccc2c(c1)ncn2-c1cccc(Cl)c1)C1CC1` [MF-PGDH-064, 1-(3-chlorophenyl)-N-cyclopropyl-N-methyl-1H-benzo[d]imidazole-5-carboxamide], the IC50 was at least 1000 nM.
As to `CC(C)(O)CCC#Cc1nc2cc(C(=O)N3CCC(F)(F)CC3)cnc2n1-c1ccc(C#N)cc1` [MF-DH-544, 4-(6-(4,4-difluoropiperidine-1-carbonyl)-2-(5-hydroxy-5-methylhex-1-yn-1-yl)-3H-imidazo[4,5-b]pyridin-3-yl)benzonitrile], the IC50 lay in the range of 100 to 1000 nM.
With `COc1cccc(-n2ccc3cc(C(=O)N4CCCCC4)cnc32)c1` [MF-DH-294], the IC50 was below 100 nM.
Turning to `O=C(O)[C@@H]1CCCN1C(=O)c1cccc(-n2ccc3cc(C(=O)N4CCC(F)(F)CC4)cnc32)c1` [MF-DH-489, (3-(5-(4,4-difluoropiperidine-1-carbonyl)-1H-pyrrolo[2,3-b]pyridin-1-yl)benzoyl)-L-proline], the IC50 was 100 to 1000 nM.
Take `CCOc1ccc(-n2ccc3cc(C(=O)N4CCCCC4)cnc32)cc1` [MF-DH-306]: the IC50 was below 100 nM.
Regarding `N#Cc1ccc(-n2ccc3cc(C(=O)N4CCC(F)(F)CC4)cnc32)cc1O` [MF-DH-441], the IC50 was below 100 nM.
On to `O=C(c1cnc2c(c1)c(Cl)cn2-c1cncnc1)N1CCC(F)CC1` [MF-DH-145], for which the IC50 was below 100 nM.
For the compound `O=C(c1ccc2c(c1)CCCN2c1cccc(Cl)c1)N1CCCCC1` [MF-PGDH-057, (1-(3-chlorophenyl)-1,2,3,4-tetrahydroquinolin-6-yl)(piperidin-1-yl)methanone], the IC50 is below 100 nM.
As for `Cn1cc(-n2cc(Cl)c3cc(C(=O)N4CCC(F)CC4)cnc32)cn1` [MF-DH-140], the IC50 is below 100 nM.
In the case of `O=C(c1cnc2c(ccn2-c2cccc(Cl)c2)c1)N1CCCCC1` [MF-PGDH-014], the IC50 is below 100 nM.
In the case of `CC(C)(O)c1ccc(-n2ccc3cc(C(=O)N4CCCCC4)cnc32)cc1` [MF-DH-371] it was below 100 nM.
As to `CC1(C)CCN(c2cnccn2)c2ccc(C(=O)N3CCC(F)CC3)cc21` [MF-DH-160, (4,4-dimethyl-1-(pyrazin-2-yl)-1,2,3,4-tetrahydroquinolin-6-yl)(4-fluoropiperidin-1-yl)methanone], the half-maximal inhibitory concentration (IC50) lay in the range of 100 to 1000 nM.
In the case of `COc1ccc(-n2ccc3c(C#N)c(C(=O)N4CCCCC4)cnc32)cc1` [MF-DH-289, 1-(4-methoxyphenyl)-5-(piperidine-1-carbonyl)-1H-pyrrolo[2,3-b]pyridine-4-carbonitrile], the IC50 was below 100 nM.
On to `N#Cc1ccc(-n2ccc3cc(C(=O)N4C[C@H](F)C[C@H](F)C4)cnc32)cc1` [MF-DH-417, 4-(5-((3R,5S)-3,5-difluoropiperidine-1-carbonyl)-1H-pyrrolo[2,3-b]pyridin-1-yl)benzonitrile], for which the IC50 is 100 to 1000 nM and < 100 nM.
On to `O=C(c1cnc2c(ccn2-c2ccc(CO)cc2)c1)N1CCCCC1` [MF-DH-307], for which the IC50 is below 100 nM.
Regarding `O=C(c1cnc2c(c1)c(Cl)cn2-c1ccc2c(c1)OC(F)(F)O2)N1CCC(F)CC1` [MF-DH-250], the IC50 was below 100 nM.
In the case of `CC(C)(O)CCc1cc2cc(C(=O)N3CCC(F)(F)CC3)cnc2n1-c1ccc(C#N)cc1` [MF-DH-444, 4-(5-(4,4-difluoropiperidine-1-carbonyl)-2-(3-hydroxy-3-methylbutyl)-1H-pyrrolo[2,3-b]pyridin-1-yl)benzonitrile], the IC50 was below 100 nM.
Consider `COc1ccc(-n2cnc3cc(C(=O)N4CC(F)C4)cnc32)cc1` [MF-DH-138], for which the IC50 was in the range of 100 to 1000 nM.
With `O=C(c1ccc(COc2ccccc2Cl)cn1)N1CCC(F)CC1` [MF-DH-121, (5-((2-chlorophenoxy)methyl)pyridin-2-yl)(4-fluoropiperidin-1-yl)methanone], the IC50 was at least 1000 nM.
On to `COc1cncc(-n2ccc3cc(C(=O)N4CCCCC4)cnc32)c1` [MF-DH-296], for which the IC50 is below 100 nM.
Consider `N#Cc1ccc(-n2ccc3cc(C(=O)N4CCC(F)CC4)ncc32)cc1` [MF-DH-463, 4-(5-(4-fluoropiperidine-1-carbonyl)-1H-pyrrolo[2,3-c]pyridin-1-yl)benzonitrile], for which the IC50 is at least 1000 nM.
Regarding `CNC(=O)c1ccc(-n2ccc3cc(C(=O)N4CCCCC4)cnc32)cc1` [MF-DH-368], the IC50 is below 100 nM.
Regarding `O=C(c1cnc2c(c1)ncn2-c1ccc(OC(F)F)cc1)N1CCC(F)CC1` [MF-DH-222], the IC50 lay in the range of 100 to 1000 nM.
Turning to `COc1ccc(-n2c(NC(C)=O)nc3cc(C(=O)N4CCC(F)CC4)cnc32)cc1` [MF-DH-116], the IC50 was at least 1000 nM.
In the case of `CCOC(=O)Cc1nc2cc(C(=O)N3CCCCC3)ccc2n1-c1cccc(Cl)c1` [MF-PGDH-030, ethyl 2-(1-(3-chlorophenyl)-5-(piperidine-1-carbonyl)-1H-benzo[d]imidazol-2-yl)acetate] it was below 100 nM.
Regarding `O=C(c1cnc2c(c1)c(Cl)cn2-c1cncc(Cl)c1)N1CCCCC1` [MF-DH-274], the IC50 is below 100 nM.
As for `O=C(c1cnc2c(ccn2-c2ccncn2)c1)N1CCCCC1` [MF-PGDH-069], the IC50 is below 100 nM.
For `Cc1cn(-c2cnccn2)c2ccc(C(=O)N3CCC(F)CC3)cc12` [MF-DH-180, (4-fluoropiperidin-1-yl)(3-methyl-1-(pyrazin-2-yl)-1H-indol-5-yl)methanone], the IC50 was in the range of 100 to 1000 nM.
`COc1ccc(-n2ccc3cc(C(=O)N4C[C@H](C)C[C@H](C)C4)cnc32)cc1` [MF-DH-329, ((3R,5S)-3,5-dimethylpiperidin-1-yl)(1-(4-methoxyphenyl)-1H-pyrrolo[2,3-b]pyridin-5-yl)methanone]: the IC50 is below 100 nM.
In the case of `CC1(C)CN(C(=O)c2ccc3c(c2)ncn3-c2cccc(Cl)c2)C1` [MF-PGDH-105] it was 100 to 1000 nM.
As to `COc1cccc(C(=O)Nc2ccc(C(=O)N3CCCCC3)cc2)c1` [MF-PGDH-089], the IC50 fell in the range of 100 to 1000 nM.
For the compound `O=C(Nc1ccno1)c1ccc(-n2ccc3cc(C(=O)N4CCC(F)(F)CC4)cnc32)cn1`, the IC50 is below 100 nM.
On to `CCC(CC)n1cnc2cc(C(=O)N3CCCCC3)cnc21` [MF-DH-236], for which the IC50 fell in the range of 100 to 1000 nM.
As for `O=C(c1cnc2c(ccn2-c2cnccn2)c1)N1CCCCC1` [MF-PGDH-071], the IC50 was below 100 nM.
With `O=C(c1ccc2c(c1)ncn2-c1cccc(Cl)c1)N1CCC1` [MF-PGDH-104], the IC50 was 100 to 1000 nM.
As for `Cc1nc(-c2cccc(-n3ccc4cc(C(=O)N5CCCCC5)cnc43)c2)no1` [MF-DH-402], the IC50 was below 100 nM.
Regarding `COc1ccc(-n2cc(Cl)c3cc(C(=O)N4CCCCC4)cnc32)cc1` [MF-DH-239], the IC50 was below 100 nM.
For `N#Cc1cc(-n2ccc3cc(C(=O)N4CCC(F)(F)CC4)cnc32)cnc1O` [MF-DH-502], the IC50 was below 100 nM.
On to `Nc1ncc(-n2ccc3cc(C(=O)N4CCCCC4)cnc32)cc1Cl` [MF-DH-393], for which the IC50 is below 100 nM.
As to `COc1ccccc1C(=O)N(C)c1ccc(C(=O)N2CCCCC2)cc1` [MF-PGDH-042], the IC50 is at least 1000 nM.
`O=C(O)Cc1ccc(-n2ccc3cc(C(=O)N4CCC(F)(F)CC4)cnc32)cc1` [MF-DH-426, 2-(4-(5-(4,4-difluoropiperidine-1-carbonyl)-1H-pyrrolo[2,3-b]pyridin-1-yl)phenyl)acetic acid]: the IC50 was below 100 nM.
Consider `O=C(c1cnc2c(ccn2-c2ccc(CO)cc2)c1)N1CCC(F)CC1` [MF-DH-347], for which the IC50 is below 100 nM.
Turning to `O=C(c1cnc2c(ccn2-c2cncc(Cl)c2)c1)N1CCCCC1` [MF-DH-295], the IC50 was below 100 nM.
Next, `O=C(O)c1ccc(-n2ccc3cc(C(=O)N4CCC(F)(F)CC4)cnc32)nc1` [MF-DH-469]: below 100 nM.
For `NC[C@@H]1CN(c2cncc(-n3ccc4cc(C(=O)N5CCC(F)(F)CC5)cnc43)c2)C(=O)O1` [MF-DH-479], the IC50 was below 100 nM.
In the case of `N#Cc1ncc(-n2ccc3cc(C(=O)N4CCCCC4)cnc32)cn1` [MF-DH-397], the IC50 is below 100 nM.
Consider `O=C(c1ccc2c(c1)ncn2-c1cccc(Cl)c1)N1CCC(O)C1` (stereo not shown) [MF-PGDH-050], for which the IC50 is at least 1000 nM.
In the case of `O=C(c1cnc2c(ccn2-c2ccn3ccnc3c2)c1)N1CCCCC1` [MF-DH-318] it was below 100 nM; in that of `CS(=O)(=O)c1ccc(-n2ccc3cc(C(=O)N4CCCCC4)cnc32)cc1` [MF-DH-310], below 100 nM.

The values are drawn from patent publication US11345702B1 (Myoforte Therapeutics, Inc., priority 2020, dated 2022).
